Results: US12303724B2, “Non-adult human dosing of anti-CD30 antibody-drug conjugates for treatment of hematological or lymphoid cancer” (priority 2016, dated 2025)

Experiments:
Assay type in all cases: in vivo, human
[1] = test system: relapsed or refractory (r/r) Hodgkin Lymphoma (HL) or systemic anaplastic large-cell lymphoma (sALCL); experiment: Example 2: BSA-based BV monotherapy in pediatric patients
Procedure: Pediatric study subjects are administered BV (administered IV infusion, once every three weeks (21 days)) at a dose of 71.5 mg/m^2. Each 21-day treatment cycle is composed of 1 day study drug treatment, followed by a monitoring period of 20 days. Patients may receive BV for up to 16 cycles. Objective response rates (ORR; complete remission (CR)+ partial remission (PR)) are determined by an independent review facility (IRF) using PET, CT, MRI and, clinical assessment according to the International Working Group (IWG) Revised Response Criteria for Malignant Lymphoma. Time to progression (from the first dose of study treatment to the date of first documented progressive disease), time to response (from the first dose of study treatment to the date of first documentation of a complete or partial response), duration of response (from the date of first documentation of a response to the date of progressive disease), event-free survival (from first dose until treatment failure), progression-free survival (PFS; from the first dose of study treatment to disease progression or death), and overall survival (OS; from the first dose of study treatment to date of death) are also evaluated. Patients are followed for progression-free survival (PFS) and overall survival (OS) every 12 weeks for 12 months after the end of treatment (EOT) visit. […]

[2] = test system: CD30-positive cutaneous t-cell lymphomas; experiment: Example 5: BSA-based BV versus methotrexate or bexarotene in pediatric patients; conditions: BV 71.5 mg/m^2 IV every three weeks, monotherapy, up to 16 cycles
Procedure: Pediatric (non adult human) patients with CD30-positive cutaneous t-cell lymphomas (Primary Cutaneous Anaplastic Large Cell Lymphoma, Mycosis Fungoides, Cutaneous T-Cell Lymphoma) are provided. Study subjects are randomly assigned to one of the following treatments: 1) BV (administered IV, once every three weeks (21 days)) at a dose of 71.5 mg/m^2 as monotherapy for up to a total of 16 cycles; or 2) physician's choice of methotrexate or bexarotene (methotrexate is administered orally (5 to 50 mg) once weekly; dose adjustment is guided by patient response and toxicity or bexarotene is administered orally (300 mg/m^2) once daily with meals).
The proportion of patients achieving an objective response (ORR; complete remission (CR)+partial remission (PR)) that lasts at least 4 months is evaluated. The proportion of patients achieving complete response (CR) and progression-free survival (PFS) are also evaluated.

[3] = Phase 1/2 pediatric study of brentuximab vedotin: serum pharmacokinetics; conditions: pediatric patients, 1.4 or 1.8 mg/kg body weight every 3 weeks, AUC versus age (FIG. 1A)
Source text: This study had assessment of pharmacokinetics of BV in pediatric patients as one of its objectives.
The goal of phase 1 portion of the study was to establish safety and define MTD (maximum tolerated dose) of brentuximab vedotin in pediatric hematological malignancies with high expression of CD30, both HL and ALCL were included in the phase 1 study population. The phase 2 study was designed to administer brentuximab vedotin at the RP2D (recommended phase II dose) determined as the MTD [Maximum Tolerated Dose] in the phase 1 portion of the study.
Blood samples for determining BV levels from the serum were obtained at several time points during treatment with BV at the dose of 1.4 or 1.8 mg/kg body weight every 3 weeks. These doses were within the range of doses that were previously determined to be safe and efficacious in the adult population in earlier studies (Younes, et al., N. Engl J Med 363; 19, Nov. 2010).
The pharmacokinetic analyses described here included pharmacokinetic data from 30 pediatric patients for the initial analyses.

brentuximab vedotin
CR, PR, PFS, OS relative to treatments without BV ([1]; 71.5 mg/m^2 IV once every three weeks, up to 16 cycles): one or more of improved CR, PR, PFS, or OS
CR, PR, PFS, OS of BSA-adjusted doses relative to weight-adjusted dose ([1]; 71.5 mg/m^2 versus BV at a weight-adjusted dose): one or more of improved CR, PR, PFS or OS
ORR, CR, PFS relative to methotrexate or bexarotene [2]: one or more of improved ORR, CR or PFS
systemic exposure to BV as measured by the Area Under the concentration-time Curve (AUC) [3]: decrease in age from about 18 years led to decrease systemic exposure to BV
